#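 Each compound was tested at five concentrations against cells in 96-well plates for 48 hours. GI50 is the concentration that inhibits growth by half.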 The source made the active and inactive calls. Cut-off read from the data, not from the text of the source: active = GI50 up to about 1.1 µM and inactive = higher.
# Legend:
# Experiment in all cases: NCI-60 cell line screen, 48 h
# [1] = system: HOP-92
# [2] = system: SR
# [3] = system: EKVX
# [4] = system: OVCAR-5
# [5] = system: HT-29
# [6] = system: NCI-H226
# [7] = system: U-251
# [8] = system: SK-MEL-28
# [9] = system: ACHN
# [10] = system: SNB-78
# [11] = system: SW-620
# [12] = system: SK-OV-3
# [13] = system: SF-295
# [14] = system: RXF 631
# [15] = system: MOLT-4
# [16] = system: NCI-H23
# [17] = system: HOP-62
# [18] = system: M14
# [19] = system: M19-MEL
# [20] = system: SF-539
# [21] = system: HOP-18
# [22] = system: OVCAR-3
# [23] = system: LOX IMVI
# [24] = system: HCT-116
# [25] = system: SK-MEL-2
# [26] = system: SNB-75
# [27] = system: NCI-H460
# [28] = system: COLO 205
# [29] = system: SK-MEL-5
# [30] = system: KM12
# [31] = system: SN12C
# [32] = system: UACC-257
# [33] = system: HCC 2998
# [34] = system: KM-20L2
# [35] = system: K562
# [36] = system: XF498
# [37] = system: LXFL 529
# [38] = system: DMS-273
# [39] = system: CAKI-1
# [40] = system: OVCAR-8
# [41] = system: DLD-1
# [42] = system: TK-10
# [43] = system: UACC-62
# [44] = system: NCI-H522
# [45] = system: A498
# [46] = system: SF-268
# [47] = system: CCRF-CEM
# [48] = system: 786-0
# [49] = system: SNB-19
# [50] = system: OVCAR-4
# [51] = system: IGROV-1
# [52] = system: UO-31
# [53] = system: A549
# [54] = system: HCT-15
# [55] = system: Malme-3M
# [56] = system: RPMI-8226
# [57] = system: RXF 393
# [58] = system: HL-60
# [59] = system: DMS-114
structure (smiles),measurement,setting,value
COc1cc2c(cc1OC(=O)CC(C)O)C1C(OC2=O)C(OC(C)=O)C=C2CCN(C)[C@H]21 (some centres undefined),GI50,[1],17.3 µM (inactive)
same,GI50,[2],74.5 µM (inactive)
same,GI50,[3],65.8 µM (inactive)
same,GI50,[4],> 100 µM (inactive)
same,GI50,[5],> 100 µM (inactive)
same,GI50,[6],27.5 µM (inactive)
same,GI50,[7],24.2 µM (inactive)
same,GI50,[8],29 µM (inactive)
same,GI50,[9],18 µM (inactive)
same,GI50,[10],20.7 µM (inactive)
same,GI50,[11],> 100 µM (inactive)
same,GI50,[12],15.9 µM (inactive)
same,GI50,[13],20.7 µM (inactive)
same,GI50,[14],31 µM (inactive)
same,GI50,[15],47.2 µM (inactive)
same,GI50,[16],33.1 µM (inactive)
same,GI50,[17],21.1 µM (inactive)
same,GI50,[18],68.5 µM (inactive)
same,GI50,[19],78.9 µM (inactive)
same,GI50,[20],21.4 µM (inactive)
same,GI50,[21],26.9 µM (inactive)
same,GI50,[22],38.4 µM (inactive)
same,GI50,[23],40.4 µM (inactive)
same,GI50,[24],58.7 µM (inactive)
same,GI50,[25],15.9 µM (inactive)
same,GI50,[26],16.1 µM (inactive)
same,GI50,[27],> 100 µM (inactive)
same,GI50,[28],81.3 µM (inactive)
same,GI50,[29],38.1 µM (inactive)
same,GI50,[30],> 100 µM (inactive)
same,GI50,[31],38.6 µM (inactive)
same,GI50,[32],> 100 µM (inactive)
same,GI50,[33],26.2 µM (inactive)
same,GI50,[34],> 100 µM (inactive)
same,GI50,[35],> 100 µM (inactive)
same,GI50,[36],20.1 µM (inactive)
same,GI50,[37],82.4 µM (inactive)
same,GI50,[38],47.1 µM (inactive)
same,GI50,[39],71.1 µM (inactive)
same,GI50,[40],39.9 µM (inactive)
same,GI50,[41],69 µM (inactive)
same,GI50,[42],26.3 µM (inactive)
same,GI50,[43],31.1 µM (inactive)
same,GI50,[44],97.7 µM (inactive)
same,GI50,[45],17.2 µM (inactive)
same,GI50,[46],46.3 µM (inactive)
same,GI50,[47],> 100 µM (inactive)
same,GI50,[48],17.9 µM (inactive)
same,GI50,[49],20.7 µM (inactive)
same,GI50,[50],40.5 µM (inactive)
same,GI50,[51],21.5 µM (inactive)
same,GI50,[52],47 µM (inactive)
same,GI50,[53],64.3 µM (inactive)
N#Cc1c(-c2ccc(Cl)c(Cl)c2)c(-c2ccc(Cl)c(Cl)c2)nn(CC(=O)O)c1=O,GI50,[1],> 100 µM (inactive)
same,GI50,[3],> 100 µM (inactive)
same,GI50,[4],> 100 µM (inactive)
same,GI50,[5],33.3 µM (inactive)
same,GI50,[6],24 µM (inactive)
same,GI50,[7],32.1 µM (inactive)
same,GI50,[8],75.2 µM (inactive)
same,GI50,[9],61.5 µM (inactive)
same,GI50,[10],> 100 µM (inactive)
same,GI50,[11],53.6 µM (inactive)
same,GI50,[12],> 100 µM (inactive)
same,GI50,[54],28.2 µM
same,GI50,[13],48.6 µM (inactive)
same,GI50,[14],64.9 µM (inactive)
same,GI50,[15],68.4 µM (inactive)
same,GI50,[17],> 100 µM (inactive)
same,GI50,[18],99.8 µM (inactive)
same,GI50,[55],> 100 µM (inactive)
same,GI50,[19],> 100 µM (inactive)
same,GI50,[21],64.3 µM (inactive)
same,GI50,[22],27.2 µM (inactive)
same,GI50,[56],79.4 µM (inactive)
same,GI50,[23],41.3 µM (inactive)
same,GI50,[24],41.5 µM (inactive)
same,GI50,[25],> 100 µM (inactive)
same,GI50,[26],30.5 µM (inactive)
same,GI50,[27],36.9 µM (inactive)
same,GI50,[28],71.4 µM (inactive)
same,GI50,[29],34.7 µM (inactive)
same,GI50,[30],43.7 µM (inactive)
same,GI50,[57],20.1 µM (inactive)
same,GI50,[31],51.3 µM (inactive)
same,GI50,[32],66.2 µM (inactive)
same,GI50,[33],52.2 µM (inactive)
same,GI50,[34],24.2 µM (inactive)
same,GI50,[35],43.9 µM (inactive)
same,GI50,[36],27.9 µM (inactive)
same,GI50,[37],72.4 µM (inactive)
same,GI50,[38],44.7 µM (inactive)
same,GI50,[39],38.5 µM (inactive)
same,GI50,[40],57 µM (inactive)
same,GI50,[41],63.5 µM (inactive)
same,GI50,[42],> 100 µM (inactive)
same,GI50,[43],> 100 µM (inactive)
same,GI50,[47],48.2 µM (inactive)
same,GI50,[48],> 100 µM (inactive)
same,GI50,[50],> 100 µM (inactive)
same,GI50,[58],43.1 µM (inactive)
same,GI50,[51],> 100 µM (inactive)
same,GI50,[52],57.8 µM (inactive)
same,GI50,[53],87.7 µM (inactive)
COC(=O)CCC(NC(=S)N/N=C/c1cccs1)C(=O)OC (centres undefined),GI50,[1],> 100 µM (inactive)
same,GI50,[2],> 100 µM (inactive)
same,GI50,[3],> 100 µM (inactive)
same,GI50,[4],> 100 µM (inactive)
same,GI50,[5],> 100 µM (inactive)
same,GI50,[6],> 100 µM (inactive)
same,GI50,[7],> 100 µM (inactive)
same,GI50,[8],> 100 µM (inactive)
same,GI50,[9],> 100 µM (inactive)
same,GI50,[10],> 100 µM (inactive)
same,GI50,[11],> 100 µM (inactive)
same,GI50,[12],> 100 µM (inactive)
same,GI50,[54],> 100 µM
same,GI50,[13],> 100 µM (inactive)
same,GI50,[14],> 100 µM (inactive)
same,GI50,[16],> 100 µM (inactive)
same,GI50,[17],> 100 µM (inactive)
same,GI50,[18],> 100 µM (inactive)
same,GI50,[55],> 100 µM (inactive)
same,GI50,[19],> 100 µM (inactive)
same,GI50,[20],> 100 µM (inactive)
same,GI50,[21],> 100 µM (inactive)
same,GI50,[22],> 100 µM (inactive)
same,GI50,[23],> 100 µM (inactive)
same,GI50,[24],> 100 µM (inactive)
same,GI50,[59],> 100 µM (inactive)
same,GI50,[25],> 100 µM (inactive)
same,GI50,[26],> 100 µM (inactive)
same,GI50,[27],> 100 µM (inactive)
same,GI50,[28],> 100 µM (inactive)
same,GI50,[29],> 100 µM (inactive)
same,GI50,[30],> 100 µM (inactive)
same,GI50,[57],> 100 µM (inactive)
same,GI50,[31],> 100 µM (inactive)
same,GI50,[32],> 100 µM (inactive)
same,GI50,[33],> 100 µM (inactive)
same,GI50,[34],> 100 µM (inactive)
same,GI50,[35],> 100 µM (inactive)
same,GI50,[36],> 100 µM (inactive)
same,GI50,[37],> 100 µM (inactive)
same,GI50,[38],> 100 µM (inactive)
same,GI50,[40],> 100 µM (inactive)
same,GI50,[41],> 100 µM (inactive)
same,GI50,[42],> 100 µM (inactive)
same,GI50,[43],> 100 µM (inactive)
same,GI50,[44],> 100 µM (inactive)
same,GI50,[45],> 100 µM (inactive)
same,GI50,[46],> 100 µM (inactive)
same,GI50,[48],> 100 µM (inactive)
same,GI50,[49],> 100 µM (inactive)
same,GI50,[50],> 100 µM (inactive)
same,GI50,[58],> 100 µM (inactive)
same,GI50,[51],> 100 µM (inactive)
same,GI50,[52],> 100 µM (inactive)
same,GI50,[53],> 100 µM (inactive)
